From patent US11396643B2, “Compositions comprising bacterial strains and use thereof in controlling pathogenic microorganisms” (Better Air International Limited, priority 2018, dated 2022) come the findings set out here.

What all share (test): Agar well diffusion antifungal assay
What all share (assay type): cell-based
Holding throughout (conditions): PDA plates, 25° C. 72 h
In general terms: In agar diffusion tests the substance spreads into inoculated agar from a disc or well.

The test system of assay [1] is Cladosporium sphaerospermum Penzig (ATCC MYA-4645). As to the method: (§1) Brain Heart Infusion (BHI) Agar was used for the antagonism against pathogenic microorganisms while the Potato Dextrose Agar (PDA) was used for evaluation against molds. […] Molds were prepared using PDA at 25° C. with 85% HR for 7 days. […] The same amount of mold spore suspension was inoculated on PDA.

For assay [2], the system named is Alternaria alternata (Fries) Keissler (ATCC MYA-4642). As to the method: as §1
Assay [3] has as its system Penicillium chrysogenum Thom (ATCC MYA-4644). As to the method: as §1

On to `OO` [Hydrogen peroxide 10%, Hydrogen peroxide], for which, in assay [1], the “Inhibition zone, Cladosporium sphaerospermum Penzig (ATCC MYA-4645)” value was 12 mm. Also, in assay [2], the “Inhibition zone, Alternaria alternata (Fries) Keissler (ATCC MYA-4642)” value is reported as 8 mm. The “Inhibition zone, Penicillium chrysogenum Thom (ATCC MYA-4644)” value in assay [3] is 10 mm.
